{"source": "patent US9364454B2", "about": "“Anti-inflammatory actions of neuroprotectin D1/protectin D1 and its natural stereoisomers” (The Brigham and Women's Hospital, Inc., priority 2005, dated 2016)", "test_system": "FVB male mice", "assay": "Acute inflammatory exudates: zymosan A murine peritonitis (leukocyte infiltration)", "format": "in vivo, mouse", "settings": "for anti-inflammatory potency in vivo, PMN infiltration (in words): dose range tested (FIG. 6), lavage at 2 h; for activity on PMN infiltration at higher doses / dose dependence (in words): higher doses (10 ng, 100 ng); for kind of joint anti-inflammatory action of PD1 and RvE1: 10 ng/mouse i.p. of either or both, 2 h", "method": "Peritonitis was carried out using 6-8 week-old FVB male mice (Charles River Laboratories) fed laboratory Rodent Diet 5001 (Purina Mills) that were anesthetized with isoflurane, and compounds to be tested were administered intraperitoneally. […] Each compound tested or vehicle alone was suspended in 1 μl ethanol and mixed in sterile saline (120 μl). After intraperitoneal injections (either 2 or 4 hours of acute inflammation), the mice were sacrificed in accordance with the Harvard Medical Area Standing Committee on Animals protocol no. 02570, and peritoneal lavages were collected rapidly and placed in an ice bath (4° C.) for enumeration, differential counts, and further analysis.", "note": "Entries after “also recorded” stand apart in the source; their conditions may differ."}
{"compound": "CC/C=C\\C[C@H](O)C#C/C=C/C=C/[C@H](O)C/C=C\\C/C=C\\CCC(=O)O", "note": "[15,16-dehydro-PD1]", "values": [{"measurement": "PMN infiltration (in words)", "setting": "10 ng/mouse, 4 h after injection (FIG. 9)", "value": "retained activity in vivo; also recorded: slightly less potent than the native PD1; also recorded: reduced PMN infiltration; also recorded: Statistically different from *zymosan A-injected mice; also recorded: less potent"}, {"measurement": "recruitment of monocytes and lymphocytes to exudates (in words)", "setting": "peritonitis, differential counts", "value": "increased the non-phlogistic recruitment of monocytes and lymphocytes"}]}
{"compound": "CC/C=C\\C[C@H](O)/C=C/C=C\\C=C\\[C@@H](O)C/C=C\\C/C=C\\CCC(=O)O", "note": "[Compound I, 10S,17S-dihydroxy-docosa-4Z,7Z,11E,13Z,15E,19Z-hexaenoic acid]", "values": [{"measurement": "rank order of potency", "setting": "0.1 ng dose", "value": "Compound VI>>PD1>10S,17S-DT (the double dioxygenation product)>the Δ15-trans-PD1>>Compound V"}, {"measurement": "activity on PMN infiltration (in words)", "setting": "0.1 ng dose, compared to PD1", "value": "not active"}, {"measurement": "activity on PMN infiltration (in words)", "setting": "1 ng/mouse dose", "value": "did display some activity"}, {"measurement": "rank order of potency", "setting": "1-10 ng dose", "value": "PD1≈PD1 methyl ester>>Δ15-trans PD1>10S,17S-diHDHA (isomer I)"}, {"measurement": "anti-inflammatory potency in vivo, PMN infiltration (in words)", "value": "nor did it carry potent actions; also recorded: substantially less potent; also recorded: PD1 (Compound II)>>10S,17S-diHDHA (Compound I); also recorded: possesses some anti-inflammatory activity in vivo, albeit proved to be much less potent than natural or synthetic PD1"}, {"measurement": "activity on PMN infiltration at higher doses / dose dependence (in words)", "value": "blocked PMN infiltration, but it was less potent than PD1; also recorded: did not increase with higher doses in a statistically significant fashion"}]}
{"compound": "CC/C=C\\C[C@H](O)/C=C/C=C\\C=C\\[C@H](O)C/C=C\\C/C=C\\CCC(=O)O", "note": "[Compound IV, 10R,17S-dihydroxy-docosa-4Z,7Z,11E,13Z,15E,19Z-hexaenoic-acid]", "values": [{"measurement": "activity on PMN infiltration (in words)", "setting": "1 ng/mouse dose", "value": "essentially equipotent"}, {"measurement": "activity on PMN infiltration at higher doses / dose dependence (in words)", "value": "did not increase potency in a dose-dependent fashion"}]}
{"compound": "CC/C=C\\C[C@@H](O)\\C=C/C=C/C=C/[C@@H](O)C/C=C\\C/C=C\\CCC(=O)O", "note": "[Compound V, 10S,17R,-dihydroxy-docosa-4Z,7Z,11E,13E,15Z,19Z-hexaenoic-acid]", "values": [{"measurement": "rank order of potency", "setting": "0.1 ng dose", "value": "Compound VI>>PD1>10S,17S-DT (the double dioxygenation product)>the Δ15-trans-PD1>>Compound V"}, {"measurement": "anti-inflammatory potency in vivo, PMN infiltration (in words)", "value": "essentially without activity"}, {"measurement": "anti-inflammatory potency in vivo, PMN infiltration (in words)", "setting": "listed as compound V", "value": "essentially inactive in vivo"}]}
{"compound": "CC/C=C\\C[C@H](O)\\C=C/C=C/C=C/[C@@H](O)C/C=C\\C/C=C\\CCC(=O)O", "note": "[Compound VI, 10S,17S-dihydroxy-docosa-4Z,7Z,11E,13E,15Z,19Z-hexaenoic-acid]", "values": [{"measurement": "rank order of potency", "setting": "0.1 ng dose", "value": "Compound VI>>PD1>10S,17S-DT (the double dioxygenation product)>the Δ15-trans-PD1>>Compound V"}, {"measurement": "anti-inflammatory potency in vivo, PMN infiltration (in words)", "value": "the most potent of these isomers in vivo"}, {"measurement": "anti-inflammatory potency in vivo, PMN infiltration (in words)", "setting": "listed as compound VI", "value": "carries bioactivity"}, {"measurement": "anti-inflammatory potency in vivo, PMN infiltration (in words)", "setting": "listed as isomer VI", "value": "≧PD1"}]}
{"compound": "CC/C=C\\C[C@H](O)\\C=C/C=C/C=C/[C@H](O)C/C=C\\C/C=C\\CCC(=O)OC", "note": "[PD1 methyl ester]", "values": [{"measurement": "rank order of potency", "setting": "1-10 ng dose", "value": "PD1≈PD1 methyl ester>>Δ15-trans PD1>10S,17S-diHDHA (isomer I)"}]}
{"compound": "CC[C@@H](O)/C=C/C=C\\C[C@@H](O)/C=C/C=C/C=C\\[C@@H](O)CCCC(=O)O", "note": "[RvE1, 5S,12R,18R-trihydroxy-6Z,8E,10E,14Z,16E-eicosapentaenoic acid, reference compound]", "values": [{"measurement": "kind of joint anti-inflammatory action of PD1 and RvE1", "value": "additive rather than synergistic"}, {"measurement": "kind of joint anti-inflammatory action of PD1 and RvE1", "setting": "listed as resolvin E1", "value": "additive"}, {"measurement": "PMN infiltration, PD1 and RvE1 administered together (in words)", "setting": "10 ng/mouse i.p., exudates at 2 h", "value": "reduced the infiltration of PMN"}]}
{"compound": "CCC=CCC(O)C=CC=CC=CC(O)CC=CCC=CCCC(=O)OC", "note": "(stereo not shown) [methyl ester of Compound VI]", "values": [{"measurement": "anti-inflammatory potency in vivo, PMN infiltration (in words)", "value": "potent regulator of PMN infiltration"}]}
